For this assay, the system named is PC-3 cells. Description: MTT assay in PC-3 cells, 24 hr incubation. Type of assay: cell-based. The following applies: Homo sapiens, NCs of similar sizes (~100 nm). The method, then: Characterization and Evaluation of Ptxl-PLA NC: NC sizes were characterized by a ZetaPALS dynamic light scattering detector (Brookhaven Instruments, Holtsville, N.Y., USA) or by SEM. The resulting NCs were purified by ultrafiltration; their in vitro toxicities were then evaluated using MTT assay in PC-3 cells (24 hr incubation at 37 C). To determine the release kinetics of Ptxl-PLA, a PBS solution of NCs was equally divided into several portions and then incubated at 37 C. At scheduled time, the release study was terminated. DMF solution was added to dissolve all precipitation. All the samples were then dried, re-dissolved in DCM and reacted with Bu4NBH4 for 1.5 hours. A drop of acetic acid was added into the solution. The solution was stirred for 20 min before the solvent was evaporated. The residual solid was reconstituted in acetonitrile for RP HPLC analysis (Curosil, 250×4.6 mm, 5μ; Phenomenex, Torrence, Calif., USA).
PC-3 cells were plated in a 96-well plate for 24 h (10,000 cells per well). On the day of experiments, cells were washed with prewarmed PBS and different concentration of fresh prepared NCs (prepared in 1×PBS) was added. The control cells were incubated with medium. […] The resulting crystals were dissolved and final cell viability was assessed colorimetrically by microplate reader at 655 nm. […]
On the technique in general: Tetrazolium assays rely on reduction of a dye to a coloured formazan, in cell work by metabolically active cells.

A word on the IC50: it is the concentration that inhibits the measured activity by half. Molecule `CC(=O)O[C@H]1C(=O)[C@@]2(C)[C@H]([C@H](OC(=O)c3ccccc3)[C@]3(O)C[C@H](OC(=O)[C@H](O)[C@@H](NC(=O)c4ccccc4)c4ccccc4)C(C)=C1C3(C)C)[C@]1(OC(C)=O)CO[C@@H]1C[C@@H]2O` [Ptxl, paclitaxel] yielded a 50% inhibitory concentration (IC50) of 0.087 µM.

The values above are taken from patent US9789195B2, “Particulate drug delivery methods” (priority 2007, dated 2017).
